Where “and” joins values, the source holds several entries; their conditions need not be identical. Equal values may be shown once.
Assays:
OGFOD1 = biological target: T1, OGFOD1 (Homo sapiens, UniProt Q8N543); assay: OGFOD1 inhibition assay: hydroxylation of RPS23 51-70 peptide by MALDI-TOF MS; type: biochemical; conditions: IC50 against OGFOD1, 1 μM OGFOD1; minimum measurable IC50 0.5 μM; values for 24 and 25 regarded as preliminary
T1 sequence (Q8N543 1-542): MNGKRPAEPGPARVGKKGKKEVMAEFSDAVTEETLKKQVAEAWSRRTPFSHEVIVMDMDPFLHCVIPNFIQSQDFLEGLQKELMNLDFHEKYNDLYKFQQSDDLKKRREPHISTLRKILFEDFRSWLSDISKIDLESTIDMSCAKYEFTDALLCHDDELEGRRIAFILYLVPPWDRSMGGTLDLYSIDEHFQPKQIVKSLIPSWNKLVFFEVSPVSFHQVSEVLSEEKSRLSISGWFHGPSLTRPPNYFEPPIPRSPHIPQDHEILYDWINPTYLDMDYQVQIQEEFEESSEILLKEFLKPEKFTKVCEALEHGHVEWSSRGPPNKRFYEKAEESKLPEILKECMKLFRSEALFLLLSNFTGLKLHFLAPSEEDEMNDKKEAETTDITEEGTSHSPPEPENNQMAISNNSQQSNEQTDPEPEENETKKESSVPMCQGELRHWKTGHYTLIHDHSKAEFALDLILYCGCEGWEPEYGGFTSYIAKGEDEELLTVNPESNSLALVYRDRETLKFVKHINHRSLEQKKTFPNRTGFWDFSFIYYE
Protocol: OGFOD1 inhibition assays were performed by determining the extent of hydroxylation of a 20mer fragment of human ribosomal protein S23 (RPS23) containing residues 51-70 (H2N- […]
-CONH2) by matrix-assisted laser desorption/ionization time-of-flight mass spectrometry (MALDI-TOF MS) using a Waters Micromass MALDI micro MX mass spectrometer and MassLynx 4.1, as previously described.[7,8] The optimized hydroxylation assay involved incubation of OGFOD1 (1 µM) with inhibitor (1 % v/v in DMSO) in the presence of (NH4)2Fe(SO4)2 (50 µM), the disodium salt of 2-oxoglutarate (25 µM), […]
OGFOD1 was pre-incubated with inhibitor for 5 min before initiation of the reaction via the addition of the other reagents. Reactions were quenched with formic acid (1 % v/v) after 15 min. Samples were prepared for MALDI using α-cyano-4-hydrocinnamic acid (CHCA; prepared in 50 % acetonitrile) as a matrix. Dose-responses were assessed in 8-point triplicates, normalized to a no enzyme negative control and a no inhibitor positive control. Non-linear regression analysis was performed using Prism (GraphPad). […]

JARID1B = JARID1B (Homo sapiens, UniProt Q9UGL1); assay: JARID1B AlphaScreen-based assay; type: biochemical
Protocol: reactions were quenched after 4 min. KDM4A inhibition was tested as described previously using a formaldehyde dehydrogenase (FDH) assay.[9] JARID1B and JARID1C inhibition was tested as described previously using reported AlphaScreen-based assays.[10] MINA531-464 and NO66116-641 were cloned into pFB-LIC-Bse, and the N-terminal His-tagged proteins were produced in Sf9 insect cells. The MINA53 peptide substrate Rpl27a […]
(Gly31 – Pro49 […]) and the NO66 peptide substrate Rpl8
(Asn205 – Thr224 […]) were synthesized by Peptide Protein
Research Ltd (Fareham, Hampshire, UK) to >95% purity. IC50 determinations were performed in 384-well polypropylene plates (Greiner Bio One, Cat Number 781096), and compound dispenses were performed using an ECHO 550 acoustic dispenser (Labcyte, Sunnyvale, CA).
NO66 (diluted to 375 nM in 50 mM MES pH 7.0, 150 mM NaCl) and MINA53 (diluted to 187.5 nM in 50 mM HEPES pH 7.5, 50 mM NaCl) were dispensed (40 µL) into 384-well compound plates using a multidrop combi reagent dispenser (Thermo Scientific, Code 5840300) with a small tube plastic tip dispensing cassette (Thermo Scientific, Code 24073290).
NO66 and MINA53 were pre-incubated with compound for 15 minutes, and the enzyme reaction initiated by dispensing 10 µL of substrate solution [250 µM (NH4)2Fe(SO4)2, 500 µM sodium ascorbate, 25 µM 2OG, 25 µM peptide] in optimized enzyme buffer. […]

JARID1B, sequence (Q9UGL1 whole entry): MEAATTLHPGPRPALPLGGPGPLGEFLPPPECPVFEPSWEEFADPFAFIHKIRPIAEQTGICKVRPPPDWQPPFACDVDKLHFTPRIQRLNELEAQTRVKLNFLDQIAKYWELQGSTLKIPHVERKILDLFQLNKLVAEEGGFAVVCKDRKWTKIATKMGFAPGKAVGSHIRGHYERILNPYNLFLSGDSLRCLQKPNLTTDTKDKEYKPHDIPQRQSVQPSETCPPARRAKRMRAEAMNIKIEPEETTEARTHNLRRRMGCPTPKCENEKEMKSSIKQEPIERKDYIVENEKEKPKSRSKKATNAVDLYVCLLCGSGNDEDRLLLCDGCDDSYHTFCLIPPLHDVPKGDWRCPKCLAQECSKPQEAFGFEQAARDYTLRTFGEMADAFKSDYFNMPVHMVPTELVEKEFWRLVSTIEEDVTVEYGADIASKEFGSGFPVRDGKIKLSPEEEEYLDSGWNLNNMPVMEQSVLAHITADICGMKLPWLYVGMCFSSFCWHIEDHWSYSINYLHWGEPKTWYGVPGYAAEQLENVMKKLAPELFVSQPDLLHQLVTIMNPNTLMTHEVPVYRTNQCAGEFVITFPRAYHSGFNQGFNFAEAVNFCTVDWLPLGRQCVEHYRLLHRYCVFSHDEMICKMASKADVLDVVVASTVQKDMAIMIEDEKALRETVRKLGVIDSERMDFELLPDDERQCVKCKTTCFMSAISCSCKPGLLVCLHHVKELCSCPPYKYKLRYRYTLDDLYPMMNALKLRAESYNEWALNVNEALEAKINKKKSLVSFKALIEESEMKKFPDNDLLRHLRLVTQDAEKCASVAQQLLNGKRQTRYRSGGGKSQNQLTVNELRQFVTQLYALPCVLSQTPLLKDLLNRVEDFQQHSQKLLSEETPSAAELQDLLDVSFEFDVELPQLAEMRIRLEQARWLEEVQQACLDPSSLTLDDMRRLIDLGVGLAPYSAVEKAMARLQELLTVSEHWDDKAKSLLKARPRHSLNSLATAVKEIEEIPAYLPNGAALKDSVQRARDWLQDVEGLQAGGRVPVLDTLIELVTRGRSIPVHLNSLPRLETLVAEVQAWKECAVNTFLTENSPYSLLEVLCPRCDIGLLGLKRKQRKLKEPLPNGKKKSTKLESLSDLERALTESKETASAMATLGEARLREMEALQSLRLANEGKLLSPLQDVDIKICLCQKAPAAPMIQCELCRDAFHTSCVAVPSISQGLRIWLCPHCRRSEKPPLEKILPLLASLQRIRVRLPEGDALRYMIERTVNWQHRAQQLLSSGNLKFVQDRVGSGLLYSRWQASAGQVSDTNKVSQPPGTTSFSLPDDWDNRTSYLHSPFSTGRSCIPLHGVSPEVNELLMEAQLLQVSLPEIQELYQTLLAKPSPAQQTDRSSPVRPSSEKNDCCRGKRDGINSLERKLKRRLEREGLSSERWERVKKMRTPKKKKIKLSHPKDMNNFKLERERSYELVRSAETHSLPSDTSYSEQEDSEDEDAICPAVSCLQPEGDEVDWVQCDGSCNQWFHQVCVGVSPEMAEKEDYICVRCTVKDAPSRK

Row | SMILES | IC50 (OGFOD1) | IC50 (JARID1B) [nM]
1 | Cn1c(O)c(C(=O)CCc2cccs2)c(=O)n(C)c1=O [compound 42] | 690 nM and < 1000 nM | > 100000
2 | Cn1c(O)c(C(=O)CCc2ccccc2)c(=O)n(C)c1=O [compound 26] | 700 nM and 730 nM and < 1000 nM | > 100000

— paper PMC6471485, “Selective Inhibitors of a Human Prolyl Hydroxylase (OGFOD1) Involved in Ribosomal Decoding” (Chemistry (Weinheim an Der Bergstrasse, Germany), 2019)
